Laboratory results taken from ChEMBL document CHEMBL3351453 (2014).
Calls of active or inactive are those of the source. No cut-off for these calls is given here.

Tests used:
A549 [1] = test: Cytotoxicity against human A549 cells assessed as cell viability at >40 uM after 24 hrs by MTT assay relative to gefitinib; assay type: functional
BFTC-905 = details: Homo sapiens, at 20 to 80 µM
Description: Cytotoxicity against human BFTC905 cells assessed as reduction in cell viability at 20 to 80 uM after 24 hrs by MTT assay

RKO = details: Homo sapiens, at 20 to 80 µM
Description: Cytotoxicity against human RKO cells assessed as reduction in cell viability at 20 to 80 uM after 24 hrs by MTT assay

A549 [2] = test: Cytotoxicity against human A549 cells assessed as cell viability at 60 uM after 24 hrs by MTT assay (reference value: 100%); assay type: functional; details: A549, 24 h, read-out: Activity
A549 [3] = test: Cytotoxicity against human A549 cells assessed as cell viability at 10 uM after 24 hrs by MTT assay (reference value: 100%); assay type: functional; details: A549, 24 h, read-out: Activity
A549 [4] = test: Cytotoxicity against human A549 cells assessed as cell viability at 20 uM after 24 hrs by MTT assay (reference value: 100%); assay type: functional; details: A549, 24 h, read-out: Activity
A549 [5] = test: Cytotoxicity against human A549 cells assessed as cell viability at 80 uM after 24 hrs by MTT assay (reference value: 100%); assay type: functional; details: A549, 24 h, read-out: Activity
A549 [6] = test: Cytotoxicity against human A549 cells assessed as cell viability at 40 uM after 24 hrs by MTT assay (reference value: 100%); assay type: functional; details: A549, 24 h, read-out: Activity

SMILES | Ratio (A549 [1]) | inhibition (BFTC-905) | inhibition (RKO) | further results
CCCCCCCCCCCOC(=O)CCC(=O)N1CCN(CCCOc2cc3c(Nc4ccc(F)c(Cl)c4)ncnc3cc2OC)CC1 | 15 | – | – | –
CCCCCCCCCCCCOC(=O)CCC(=O)N1CCN(CCCOc2cc3c(Nc4ccc(F)c(Cl)c4)ncnc3cc2OC)CC1 | 15 | – | – | –
COC(=O)CCC(=O)N1CCN(CCCOc2cc3c(Nc4ccc(F)c(Cl)c4)ncnc3cc2OC)CC1 | – | Active | Active | –
CCCCCCCCCCOC(=O)CCC(=O)N1CCN(CCCOc2cc3c(Nc4ccc(F)c(Cl)c4)ncnc3cc2OC)CC1 | 15 | – | – | –
COc1cc2ncnc(Nc3ccc(F)c(Cl)c3)c2cc1OCCCN1CCOC(=O)C1 | – | – | – | viability at 60 µM (A549 [2]): 94.1%; viability at 10 µM (A549 [3]): 96.1%; viability at 20 µM (A549 [4]): 93.1%; viability at 80 µM (A549 [5]): 94.9%; viability at 40 µM (A549 [6]): 91%
COc1cc2ncnc(Nc3ccc(F)c(Cl)c3)c2cc1OCCCN1CCN(C(=O)CCC(=O)O)CC1 | – | Active | Active | –
